Reference: paper PMC10763615, “Identification and engineering of potent cyclic peptides with selective or promiscuous binding through biochemical profiling and bioinformatic data analysis” (RSC Chemical Biology, 2023)
Where two headings read alike, the source gives them in different places. Positions of bridges follow the written chain, without caps; N, C: chain ends. Residues, ends and D or L forms follow the SMILES beside them.

Legend:
Format in all cases: binding
FGF-R1C ECD = target: T1, FGF-R1C ECD (Homo sapiens, UniProt P11362); assay: biochemical; design: DNA constructs for the extracellular domain (ECD) of human FGF-; HPC4 (C); made in house; host or cells: HEK 293-6E
T1 sequence (P11362 22-376 limits assumed): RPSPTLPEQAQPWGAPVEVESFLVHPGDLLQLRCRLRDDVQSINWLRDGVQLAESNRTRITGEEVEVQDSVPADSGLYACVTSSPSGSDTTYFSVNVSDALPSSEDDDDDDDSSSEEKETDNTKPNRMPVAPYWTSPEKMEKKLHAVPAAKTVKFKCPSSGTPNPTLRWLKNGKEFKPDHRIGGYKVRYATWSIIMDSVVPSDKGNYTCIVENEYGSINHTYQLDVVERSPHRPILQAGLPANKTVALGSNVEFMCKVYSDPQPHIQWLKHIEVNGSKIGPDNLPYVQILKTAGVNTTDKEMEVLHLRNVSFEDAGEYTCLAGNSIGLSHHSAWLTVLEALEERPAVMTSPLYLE
Procedure, shortened: (§1)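 Biotinylated FGF-R ECD on streptavidin biosensors was dipped into ~1 μM crude peptide in PBS pH7.4 with 0.05% Tween-20 and 0.01% BSA for association, then into buffer for dissociation, and followed by BLI. Fitted KD values were adjusted for peptide concentration measured by UPLC-CAD.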

FGF-R3C ECD = target: T2, FGF-R3C ECD (Homo sapiens, UniProt P22607); assay: biochemical; design: DNA constructs for the extracellular domain (ECD) of human FGF-; HPC4 (C); made in house; host or cells: HEK 293-6E
T2 sequence (P22607 23-375 limits assumed): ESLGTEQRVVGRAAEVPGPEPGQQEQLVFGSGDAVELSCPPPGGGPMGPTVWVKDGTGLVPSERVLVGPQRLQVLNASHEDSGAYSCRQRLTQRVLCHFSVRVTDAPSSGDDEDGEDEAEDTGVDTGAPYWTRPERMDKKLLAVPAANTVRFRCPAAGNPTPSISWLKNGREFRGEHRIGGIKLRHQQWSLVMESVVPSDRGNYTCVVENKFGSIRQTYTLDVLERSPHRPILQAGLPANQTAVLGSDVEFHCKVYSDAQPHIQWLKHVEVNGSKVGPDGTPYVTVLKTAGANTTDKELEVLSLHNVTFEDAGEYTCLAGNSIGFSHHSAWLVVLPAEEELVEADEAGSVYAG
Procedure, shortened: as §1

FGF-R4 ECD = target: T3, FGF-R4 ECD (Homo sapiens, UniProt P22455); assay: single concentration BLI of crude peptides; conditions: read-out: KD (4)
T3 construct: DNA constructs for the extracellular domain (ECD) of human FGF-; HPC4 (C); made in house; host or cells: HEK 293-6E
T3 sequence (P22455 22-369 limits assumed): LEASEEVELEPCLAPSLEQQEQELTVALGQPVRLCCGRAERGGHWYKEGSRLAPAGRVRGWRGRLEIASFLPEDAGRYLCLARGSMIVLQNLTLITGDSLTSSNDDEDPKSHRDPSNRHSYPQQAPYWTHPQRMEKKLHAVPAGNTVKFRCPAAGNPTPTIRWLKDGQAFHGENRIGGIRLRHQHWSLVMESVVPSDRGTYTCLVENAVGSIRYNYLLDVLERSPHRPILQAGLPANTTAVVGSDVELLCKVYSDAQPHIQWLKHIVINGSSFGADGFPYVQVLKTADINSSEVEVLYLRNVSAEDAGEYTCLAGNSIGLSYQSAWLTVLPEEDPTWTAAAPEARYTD
Procedure, shortened: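 Streptavidin biosensors carrying biotinylated FGF receptor ECD were immersed in peptide (~1 μM for crude single-point runs, a concentration series for purified peptides) and then in peptide-free buffer. KD was obtained by fitting the BLI association and dissociation curves.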

[1] = crude T18 selection 1 (1:1:1) peptides, single concentration BLI (Table S4)

Compound `CSCC[C@H](NC(C)=O)C(=O)N[C@H]1CSSC[C@@H](C(=O)NCC(=O)N[C@@H](CO)C(=O)NCC(=O)N[C@@H](CO)C(=O)N[C@@H](CC(=O)O)C(=O)N[C@@H](Cc2ccc(O)cc2)C(=O)N[C@@H](CCCCN)C(=O)N[C@@H](CC(=O)O)C(=O)N[C@@H](CC(=O)O)C(=O)N[C@@H](CC(=O)O)C(=O)N[C@@H](CC(=O)O)C(=O)N[C@@H](CCCCN)C(N)=O)NC(=O)[C@H](Cc2ccc(O)cc2)NC(=O)[C@H](C(C)C)NC(=O)[C@H](Cc2ccccc2)NC(=O)[C@H](C(C)C)NC(=O)[C@H](CCCCN)NC(=O)[C@H]([C@@H](C)O)NC(=O)[C@H](CCCCN)NC(=O)[C@H](Cc2c[nH]cn2)NC(=O)[C@H](CC(=O)O)NC(=O)[C@H](CC(C)C)NC(=O)[C@H](Cc2ccccc2)NC1=O` (Ac-MCFLDHKTKVFVYCGSGSDYKDDDDK-NH2; disulfide 2-14) has a Kd (FGF-R1C ECD) greater than 10 µM, a Kd (FGF-R3C ECD) greater than 10 µM and a Kd (FGF-R4 ECD; [1]) of 0.13 µM.
For `CC[C@H](C)[C@@H]1NC(=O)[C@H](C)NC(=O)[C@H](Cc2ccc(O)cc2)NC(=O)[C@@H]2CCCN2C(=O)[C@@H](NC(=O)[C@H](CCSC)NC(C)=O)CSSC[C@@H](C(=O)NCC(=O)N[C@@H](CO)C(=O)NCC(=O)N[C@@H](CO)C(=O)N[C@@H](CCC(=O)O)C(=O)N[C@@H](CCC(=O)O)C(=O)NCC(=O)N[C@@H](CO)C(=O)NCC(=O)N[C@@H](CO)C(=O)N[C@@H](CC(=O)O)C(=O)N[C@@H](Cc2ccc(O)cc2)C(=O)N[C@@H](CCCCN)C(=O)N[C@@H](CC(=O)O)C(=O)N[C@@H](CC(=O)O)C(=O)N[C@@H](CC(=O)O)C(=O)N[C@@H](CC(=O)O)C(=O)N[C@@H](CCCCN)C(N)=O)NC(=O)[C@H]([C@@H](C)O)NC(=O)[C@H](CCCCN)NC(=O)[C@H](CCCNC(=N)N)NC(=O)[C@H](Cc2c[nH]c3ccccc23)NC(=O)[C@H](CCCCN)NC(=O)[C@H](Cc2ccc(O)cc2)NC(=O)[C@H](Cc2c[nH]c3ccccc23)NC(=O)[C@H](Cc2ccc(O)cc2)NC1=O` (Ac-MCPYAIYWYKWRKTCGSGSEEGSGSDYKDDDDK-NH2; disulfide 2-15), the Kd (FGF-R1C ECD) was greater than 10 µM, the Kd (FGF-R3C ECD) was greater than 10 µM and the Kd (FGF-R4 ECD; [1]) was 0.011 µM.
Compound `CC[C@H](C)[C@@H]1NC(=O)[C@@H](NC(=O)[C@H](CCSC)NC(C)=O)CSSC[C@@H](C(=O)NCC(=O)N[C@@H](CO)C(=O)NCC(=O)N[C@@H](CO)C(=O)N[C@@H](CC(=O)O)C(=O)N[C@@H](Cc2ccc(O)cc2)C(=O)N[C@@H](CCCCN)C(=O)N[C@@H](CC(=O)O)C(=O)N[C@@H](CC(=O)O)C(=O)N[C@@H](CC(=O)O)C(=O)N[C@@H](CC(=O)O)C(=O)N[C@@H](CCCCN)C(N)=O)NC(=O)[C@H](CCCNC(=N)N)NC(=O)CNC(=O)[C@H](CCCNC(=N)N)NC(=O)[C@H](CC(C)C)NC(=O)[C@H](C(C)C)NC(=O)[C@H](CCCCN)NC(=O)[C@H](Cc2ccc(O)cc2)NC(=O)[C@H](CC(C)C)NC(=O)[C@H](CC(C)C)NC1=O` (Ac-MCILLYKVLRGRCGSGSDYKDDDDK-NH2; disulfide 2-13) has a Kd (FGF-R1C ECD) greater than 10 µM, a Kd (FGF-R3C ECD) greater than 10 µM and a Kd (FGF-R4 ECD; crude NNK peptides, single concentration BLI (Table S3)) of 0.128 µM.
`CC[C@H](C)[C@@H]1NC(=O)[C@H](CCC(=O)O)NC(=O)[C@H](CCCNC(=N)N)NC(=O)[C@@H](NC(=O)[C@H](CCSC)NC(C)=O)CSSC[C@@H](C(=O)NCC(=O)N[C@@H](CO)C(=O)NCC(=O)N[C@@H](CO)C(=O)N[C@@H](CC(=O)O)C(=O)N[C@@H](Cc2ccc(O)cc2)C(=O)N[C@@H](CCCCN)C(=O)N[C@@H](CC(=O)O)C(=O)N[C@@H](CC(=O)O)C(=O)N[C@@H](CC(=O)O)C(=O)N[C@@H](CC(=O)O)C(=O)N[C@@H](CCCCN)C(N)=O)NC(=O)[C@H](CCC(N)=O)NC(=O)[C@H](Cc2c[nH]c3ccccc23)NC(=O)[C@H](CC(C)C)NC(=O)[C@H](CCC(N)=O)NC(=O)[C@H](Cc2c[nH]c3ccccc23)NC(=O)[C@H](Cc2ccc(O)cc2)NC(=O)[C@H](CCCNC(=N)N)NC1=O` (Ac-MCREIRYWQLWQCGSGSDYKDDDDK-NH2; disulfide 2-13) showed a Kd (FGF-R1C ECD) greater than 10 µM, a Kd (FGF-R3C ECD) greater than 10 µM and a Kd (FGF-R4 ECD; [1]) of 0.027 µM.
